≈ marks a conversion by molar mass, not a printed value. Calls of active or inactive are those of the source. The rule behind the calls is not given here.
Experiments:
Candida albicans [1] = experiment: Antifungal activity against Candida albicans SC5314 assessed as inhibition of fungal growth incubated for 48 hrs by microbroth dilution method; format: functional
Candida albicans [2] = experiment: Antifungal activity against Candida albicans 10231 assessed as inhibition of fungal growth incubated for 48 hrs by microbroth dilution method; format: functional
Nakaseomyces glabratus [3] = experiment: Antifungal activity against Candida glabrata 537 assessed as inhibition of fungal growth incubated for 48 hrs by microbroth dilution method; format: functional
Candida parapsilosis [4] = experiment: Antifungal activity against Candida parapsilosis 22019 assessed as inhibition of fungal growth incubated for 48 hrs by microbroth dilution method; format: functional; details: Lodderomyces parapsilosis
Pichia kudriavzevii = experiment: Antifungal activity against Candida krusei 4996 assessed as inhibition of fungal growth incubated for 48 hrs by microbroth dilution method; format: functional
Candida tropicalis = experiment: Antifungal activity against Candida tropicalis 8915 assessed as inhibition of fungal growth incubated for 48 hrs by microbroth dilution method; format: functional
Cryptococcus neoformans [5] = experiment: Antifungal activity against Cryptococcus neoformans 32,609 assessed as inhibition of fungal growth incubated for 72 hrs by microbroth dilution method; format: functional
Aspergillus fumigatus = experiment: Antifungal activity against Aspergillus fumigatus 7544 assessed as inhibition of fungal growth incubated for 72 hrs by microbroth dilution method; format: functional
Candida albicans [6] = experiment: Antifungal activity against fluconazole-resistant Candida albicans 901 assessed as inhibition of fungal growth incubated for 48 hrs by microbroth dilution method; format: functional
Candida albicans [7] = experiment: Antifungal activity against fluconazole-resistant Candida albicans 904 assessed as inhibition of fungal growth incubated for 48 hrs by microbroth dilution method; format: functional
[Candida] auris [8] = Antifungal activity against fluconazole-resistant Candida auris 891 assessed as inhibition of fungal growth incubated for 48 hrs by microbroth dilution method; format: functional; details: Candidozyma auris
[Candida] auris [9] = Antifungal activity against fluconazole-resistant Candida auris 918 assessed as inhibition of fungal growth incubated for 48 hrs by microbroth dilution method; format: functional; details: Candidozyma auris
[Candida] auris [10] = Antifungal activity against fluconazole-resistant Candida auris 919 assessed as inhibition of fungal growth incubated for 48 hrs by microbroth dilution method; format: functional; details: Candidozyma auris
Candida albicans [11] = experiment: Antifungal activity against Candida albicans SC5314 assessed as inhibition of fungal growth at 0.5 ug/ml incubated for 48 hrs by spot assay; format: functional, organism-based; details: dose 0.5 µg/ml
Candida albicans [12] = experiment: Antifungal activity against Candida albicans 10231 assessed as inhibition of fungal growth at 0.5 ug/ml incubated for 48 hrs by spot assay; format: functional, organism-based; details: dose 0.5 µg/ml
Candida albicans [13] = experiment: Antifungal activity against fluconazole-resistant Candida albicans 904 assessed as inhibition of fungal growth at 0.5 ug/ml incubated for 48 hrs by spot assay; format: functional, organism-based; details: dose 0.5 µg/ml
Candida parapsilosis [14] = experiment: Antifungal activity against Candida parapsilosis 22019 assessed as inhibition of fungal growth at 0.5 ug/ml incubated for 48 hrs by spot assay; format: functional, organism-based; details: dose 0.5 µg/ml
Nakaseomyces glabratus [15] = experiment: Antifungal activity against Candida glabrata 537 assessed as inhibition of fungal growth at 0.5 ug/ml incubated for 48 hrs by spot assay; format: functional, organism-based; details: dose 0.5 µg/ml
Cryptococcus neoformans [16] = experiment: Antifungal activity against Cryptococcus neoformans 32,609 assessed as inhibition of fungal growth at 0.5 ug/ml incubated for 48 hrs by spot assay; format: functional, organism-based; details: dose 0.5 µg/ml
[Candida] auris [17] = Antifungal activity against Candida auris 891 assessed as inhibition of fungal growth at 0.5 ug/ml incubated for 48 hrs by spot assay; format: functional, organism-based; details: Candidozyma auris, dose 0.5 µg/ml
Candida albicans [18] = experiment: Antifungal activity against Candida albicans SC5314 assessed as reduction in fungal growth and viability at 2 ug/ml incubated for 48 hrs by spot assay; format: functional, organism-based; details: dose 2.0 µg/ml
Candida albicans [19] = experiment: Antifungal activity against Candida albicans 904 assessed as reduction in fungal growth and viability at 2 ug/ml incubated for 48 hrs by spot assay; format: functional, organism-based; details: dose 2.0 µg/ml
Candida albicans [20] = experiment: Antifungal activity against Candida albicans SC5314 assessed as inhibition of fungal growth at 4 ug/ml measured after 12 hrs by optical density based method; format: functional, organism-based; details: dose 4.0 µg/ml
Candida albicans [21] = experiment: Inhibition of biofilm formation in Candida albicans SC5314 at 64 ug/ml incubated for 24 hrs by XTT reduction assay relative to control; format: functional
Candida albicans [22] = experiment: Antibiofilm activity against Candida albicans SC5314 preformed biofilms at 4 ug/ml incubated for 24 hrs by XTT reduction assay relative to control; format: functional; parameters: scale not given: the % may be the effect or the level left; details: dose 4 µg/ml
Candida albicans [23] = experiment: Antibiofilm activity against Candida albicans SC5314 preformed biofilms at 16 ug/ml incubated for 24 hrs by XTT reduction assay relative to control; format: functional; parameters: scale not given: the % may be the effect or the level left; details: dose 16 µg/ml
Candida albicans [24] = experiment: Antibiofilm activity against Candida albicans SC5314 preformed biofilms at 64 ug/ml incubated for 24 hrs by XTT reduction assay relative to control; format: functional; parameters: scale not given: the % may be the effect or the level left; details: dose 64 µg/ml
Candida albicans [25] = experiment: Antifungal activity against Candida albicans assessed as reduction in hyphal length at 16 ug/ml; format: functional, organism-based; details: dose 16.0 µg/ml
Candida albicans [26] = experiment: Antifungal activity against Candida albicans assessed as increase in pseudohyphae at 16 ug/ml; format: functional, organism-based; details: dose 16.0 µg/ml
[27] = molecular target: Lanosterol 14-alpha demethylase (Candida albicans (strain SC5314 / ATCC MYA-2876) (Yeast), UniProt P10613); experiment: Inhibition of Lanosterol 14-alpha demethylase in Candida albicans SC5314 assessed as reduction in ergosterol level at 8 ug/ml incubated for 8 hrs by GC-MS analysis relative to control; details: at 8 µg/mL
[28] = Cytotoxicity against HUVEC cells assessed as cell survival at 128 ug/ml incubated for 24 hrs by CCK-8 assay relative to control; format: toxicity, cell-based; details: human, at 128 µg/mL, read-out: Survival
[29] = Selectivity index, ratio of IC50 for HUVEC cells to MIC for Candida albicans SC5314; format: toxicity; details: human, HUVEC cells versus Candida albicans SC5314; read-out: Selectivity Index
[30] = Selectivity index, ratio of IC50 for HUVEC cells to MIC for Candida glabrata 537; format: toxicity; details: human, HUVEC cells versus Candida glabrata 537; read-out: Selectivity Index
Candida albicans [31] = experiment: Antifungal activity against Candida albicans SC5314 infected in Galleria mellonella larvae assessed as delay in time of larval death at 8 mg/kg measured after 10 days post inoculation; format: functional, organism-based; details: time 10.0 day
Candida albicans [32] = experiment: Antifungal activity against Candida albicans SC5314 infected in Galleria mellonella larvae assessed as median survival time at 8 mg/kg measured after 10 days post inoculation; format: functional; details: time 10 day
Candida albicans [33] = experiment: Antifungal activity against Candida albicans SC5314 infected in Galleria mellonella larvae assessed as larval survival rate at 8 mg/kg measured after 10 days post inoculation relative to control; format: functional; details: SC5314, 240 h, time 10 day
Candida albicans [34] = experiment: Antifungal activity against Candida albicans SC5314 infected in Galleria mellonella larvae assessed as protection against fungal infection at 2 mg/kg measured after 10 days post inoculation; format: functional, organism-based; details: time 10.0 day
Saccharomyces cerevisiae [35] = experiment: Antifungal activity against recombinant Saccharomyces cerevisiae Y525 overexpressing CaMdr1 assessed as inhibition of fungal growth incubated for 48 hrs by microbroth dilution method; format: functional
Saccharomyces cerevisiae [36] = experiment: Antifungal activity against recombinant Saccharomyces cerevisiae Y570 overexpressing CaCdr1 assessed as inhibition of fungal growth incubated for 48 hrs by microbroth dilution method; format: functional
Saccharomyces cerevisiae [37] = experiment: Antifungal activity against recombinant Saccharomyces cerevisiae Y2411 overexpressing ScErg11 assessed as inhibition of fungal growth incubated for 48 hrs by microbroth dilution method; format: functional
Saccharomyces cerevisiae [38] = experiment: Antifungal activity against recombinant Saccharomyces cerevisiae Y2300 overexpressing ScErg11 assessed as inhibition of fungal growth incubated for 48 hrs by microbroth dilution method; format: functional
Saccharomyces cerevisiae [39] = experiment: Antifungal activity against recombinant Saccharomyces cerevisiae Y2301 overexpressing ScErg11 Y140F assessed as inhibition of fungal growth incubated for 48 hrs by microbroth dilution method; format: functional
Saccharomyces cerevisiae [40] = experiment: Antifungal activity against recombinant Saccharomyces cerevisiae Y2513 overexpressing ScErg11 Y140H assessed as inhibition of fungal growth incubated for 48 hrs by microbroth dilution method; format: functional
Saccharomyces cerevisiae [41] = experiment: Antifungal activity against recombinant Saccharomyces cerevisiae Y2374 overexpressing CgErg11 assessed as inhibition of fungal growth incubated for 48 hrs by microbroth dilution method; format: functional
Saccharomyces cerevisiae [42] = experiment: Antifungal activity against recombinant Saccharomyces cerevisiae Y2462 overexpressing ScErg11 ScNcp1 assessed as inhibition of fungal growth incubated for 48 hrs by microbroth dilution method; format: functional
Saccharomyces cerevisiae [43] = experiment: Antifungal activity against recombinant Saccharomyces cerevisiae Y2459 overexpressing CaErg11 CaCpr assessed as inhibition of fungal growth incubated for 48 hrs by microbroth dilution method; format: functional
Saccharomyces cerevisiae [44] = experiment: Antifungal activity against recombinant Saccharomyces cerevisiae Y2721 overexpressing CpErg11 CpCpr assessed as inhibition of fungal growth incubated for 48 hrs by microbroth dilution method; format: functional
Saccharomyces cerevisiae [45] = experiment: Antifungal activity against recombinant Saccharomyces cerevisiae Y2716 overexpressing CpErg11 Y132F CpCpr assessed as inhibition of fungal growth incubated for 48 hrs by microbroth dilution method; format: functional
Saccharomyces cerevisiae [46] = experiment: Resistance index, ratio of MIC for recombinant Saccharomyces cerevisiae Y525 overexpressing CaMdr1 to MIC for recombinant Saccharomyces cerevisiae Y2411 overexpressing ScErg11; format: functional
[47] = Cytotoxicity against HUVEC cells assessed as cell survival at <16 ug/ml incubated for 24 hrs by CCK-8 assay relative to control; format: toxicity, cell-based; details: human, dose < 16 µg/ml, read-out: Survival
[48] = Hemolytic activity in rabbit RBC at 32 ug/ml incubated for 1 hr by absorbance based analysis; format: toxicity, cell-based, Oryctolagus cuniculus, Erythrocyte; details: rabbit red blood cells, at 32 µg/mL, read-out: Activity

Lanosterol 14-alpha demethylase, sequence (P10613 whole entry): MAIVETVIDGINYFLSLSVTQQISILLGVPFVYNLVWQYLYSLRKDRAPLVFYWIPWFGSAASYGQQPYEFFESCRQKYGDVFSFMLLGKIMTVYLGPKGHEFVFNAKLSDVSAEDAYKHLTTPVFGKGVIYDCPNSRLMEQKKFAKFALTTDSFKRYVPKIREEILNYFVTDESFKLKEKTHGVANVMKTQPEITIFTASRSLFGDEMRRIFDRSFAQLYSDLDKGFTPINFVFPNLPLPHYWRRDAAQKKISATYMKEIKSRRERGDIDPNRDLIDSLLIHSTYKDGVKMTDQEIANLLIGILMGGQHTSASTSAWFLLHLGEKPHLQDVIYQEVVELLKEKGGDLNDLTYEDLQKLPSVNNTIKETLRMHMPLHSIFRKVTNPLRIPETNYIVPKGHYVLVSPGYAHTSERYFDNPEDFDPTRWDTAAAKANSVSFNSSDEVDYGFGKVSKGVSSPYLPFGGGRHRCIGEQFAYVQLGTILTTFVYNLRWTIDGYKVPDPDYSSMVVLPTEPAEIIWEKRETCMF

Q: Which results are given for `OC(Cn1cncn1)(Cn1cncn1)c1ccc(F)cc1F` [FLUCONAZOLE]?
A: MIC (Candida albicans [1]): 0.5 mg/L (≈ 1.63 µM); MIC (Candida albicans [2]): > 64 mg/L; MIC (Nakaseomyces glabratus [3]): 1 mg/L (≈ 3.27 µM); MIC (Candida parapsilosis [4]): 4 mg/L (≈ 13.1 µM); MIC (Pichia kudriavzevii): 64 mg/L (≈ 209 µM); MIC (Candida tropicalis): > 64 mg/L; MIC (Cryptococcus neoformans [5]): 2 mg/L (≈ 6.53 µM); MIC (Aspergillus fumigatus): > 64 mg/L; MIC (Candida albicans [6]): > 256 mg/L; MIC (Candida albicans [7]): > 256 mg/L; MIC ([Candida] auris [8]): > 256 mg/L; MIC ([Candida] auris [9]): > 256 mg/L; MIC ([Candida] auris [10]): > 256 mg/L; Activity (Candida albicans [11]): inactive; Activity (Candida albicans [12]): inactive; Activity (Candida albicans [13]): inactive; Activity (Candida parapsilosis [14]): inactive; Activity (Nakaseomyces glabratus [15]): inactive; Activity (Cryptococcus neoformans [16]): inactive; Activity ([Candida] auris [17]): inactive; Activity (Candida albicans [18]): Active; Activity (Candida albicans [19]): Active; Activity (Candida albicans [20]): Active; inhibition at 64 µg/mL (Candida albicans [21]): 26.1%; Activity (Candida albicans [22]): 31.38%; Activity (Candida albicans [23]): 34.47%; Activity (Candida albicans [24]): 33.39%; Activity (Candida albicans [25]): Active; Activity (Candida albicans [26]): Active; inhibition (INH) [27]: ~ 100%; viability at 24 h, 128 ug/ml [28]: 43.7%; selectivity ratio [29]: 100; selectivity ratio [30]: 50; Activity (Candida albicans [31]): Active; MST (Candida albicans [32]): 10 days; survival at 8 mg/kg (Candida albicans [33]): 46.7%; Activity (Candida albicans [34]): Active; MIC (Saccharomyces cerevisiae [35]): 32 mg/L; MIC (Saccharomyces cerevisiae [36]): > 64 mg/L; MIC (Saccharomyces cerevisiae [37]): 1 mg/L; MIC (Saccharomyces cerevisiae [38]): 4 mg/L; MIC (Saccharomyces cerevisiae [39]): 8 mg/L; MIC (Saccharomyces cerevisiae [40]): 8 mg/L; MIC (Saccharomyces cerevisiae [41]): 4 mg/L; MIC (Saccharomyces cerevisiae [42]): 8 mg/L; MIC (Saccharomyces cerevisiae [43]): 2 mg/L; MIC (Saccharomyces cerevisiae [44]): 4 mg/L; MIC (Saccharomyces cerevisiae [45]): 32 mg/L; Ratio (Saccharomyces cerevisiae [46]): 32

Q: What does the source list for `C[C@@H](c1ncncc1F)[C@](O)(Cn1cncn1)c1ccc(F)cc1F` [VORICONAZOLE]?
A: MIC (Saccharomyces cerevisiae [35]): 0.5 mg/L; MIC (Saccharomyces cerevisiae [36]): 8 mg/L; MIC (Saccharomyces cerevisiae [37]): 0.008 mg/L; MIC (Saccharomyces cerevisiae [38]): 0.031 mg/L; MIC (Saccharomyces cerevisiae [39]): 0.031 mg/L; MIC (Saccharomyces cerevisiae [40]): 0.031 mg/L; MIC (Saccharomyces cerevisiae [41]): 0.031 mg/L; MIC (Saccharomyces cerevisiae [42]): 0.063 mg/L; MIC (Saccharomyces cerevisiae [43]): 0.016 mg/L; MIC (Saccharomyces cerevisiae [44]): 0.063 mg/L; MIC (Saccharomyces cerevisiae [45]): 0.25 mg/L; Ratio (Saccharomyces cerevisiae [46]): 64

Q: What does the source list for `C[C@@H]1[C@H](O)[C@@H](C)/C=C/C=C/C=C/C=C/C=C/C=C/C=C/[C@H](O[C@@H]2O[C@H](C)[C@@H](O)[C@H](N)[C@@H]2O)C[C@@H]2O[C@](O)(C[C@@H](O)C[C@@H](O)[C@H](O)CC[C@@H](O)C[C@@H](O)CC(=O)O[C@H]1C)C[C@H](O)[C@H]2C(=O)O` [AMPHOTERICIN B]?
A: viability at 24 h [47]: 50%; viability at 24 h, 128 ug/ml [28]: 26.1%; hemolysis at 1 h, 32 ug/ml [48]: > 50%

From ChEMBL document CHEMBL5620353, “Novel antifungal triazoles with alkynyl-methoxyl side chains: Design, synthesis, and biological activity evaluation” (Eur J Med Chem, 2023)
